US20050112573A1, “Method of detecting toxic substance” (priority 2001, published 2005)

System: yeast genes (level of expressed mRNA)
Assay: DNA chip analysis of expressed mRNA of yeast genes after 2 h culture with a toxic chemical substance
Format: cell-based, Saccharomyces cerevisiae S288C
Conditions: for The level of expressed mRNA in the presence of chemical substance/ (ratio to absence of chemical substance): stress protein genes, DNA chip
Method: Yeast (Saccharomyces cerevtisiae S288C (α SUC2mal mel gap2 CUP1)) were cultured at 25° C. on YPD medium (yeast extract 1%, polypepton 2%, glucose 2%). One of toxic chemical substances was added to the cell at logarithmic growth phase, and the cell was further cultured for two hours. Cell was cultured without any chemical substance in the same condition, and was used as control. Concentrations of the chemical substances were defined to inhibit the growth of the yeast but not lead to death.
After the completion of cultivation, the culture was centrifuged to collect the cells. To the cells, sodium acetate buffer (50 mM sodium acetate, 10 mM EDTA, 1% SDS) was added, and the mixture was shaken at 65° C. for five minutes, followed by returning to room temperature, and obtaining the supernatant, which procedure was repeated two times. To the supernatant, ½ amount of a solution of phenol/chloroform was added, and the mixture was centrifuged to give a supernatant, which was added with an equal amount of chloroform, and the mixture was centrifuged to give a supernatant. To the supernatant, an equal amount of isopropanol containing 0.3 M sodium acetate was added, and the mixture was allowed to stand at room temperature for 30 minutes, after which the mixture was centrifuged to give a sediment of the whole RNAs. Seventy % ethanol was added to the sediment, and the mixture was again centrifuged to give a sediment, which was then dried and dissolved in water. mRNA was isolated from the whole RNAs as followings. In view of the fact that a poly A chain is attached to the 3′ terminus of mRNA, a polynucleotide having a poly T structure which was immobilized on the surface of latex beads was used to trap the mRNA, and then the mRNA was washed and eluted with spine column (Oligotex-dT30<Super>mRNA Purification Kit, Takara). Reverse transcription of the mRNA was conducted with a reverse transcriptase (Super Script II Reverse Transcriptase; catalogue No. 18064-014, GibcoBRL) using fluorescence-labeled nucleotides to give cDNAs that were introduced with Cy3-dUTP or Cy5-dUTP during the reverse transcription.
The labeled cDNAs were dissolved in TE buffer (10 mM Tris-HCl/1 mM EDTA, pH8.0), and the solution was dropped on the DNA chip containing the whole genes of yeast (DNA Chip Research Inc. Japan) so that the cDNAs were hybridized on the DNA chip at 65° C. for over 12 hours. The fluoresces intensity of the DNA chip was read with a scanner, and the ratio relative to the fluorescence intensity resulting from the absence of chemical substance was estimated as the following, which is shown in Tables 1 to 9: [formula]
In the Tables, “Intensity” indicated in the rightmost column is a value of the level of expressed mRNA of each gene in control cells as divided by the average level of the expressions of the whole genes.

CCCCCCCCCCCCOS(=O)(=O)[O-].[Na+] [(18), sodium lauryl sulfate]
The level of expressed mRNA in the presence of chemical substance/absence: YOR267C (gene YOR267C): 1.0
The level of expressed mRNA in the presence of chemical substance/absence: YOR325W (gene YOR325W): 1.0
level of expressed mRNA in the presence of chemical substance/in its absence (gene YOR336W): 1.0
level of expressed mRNA in the presence of chemical substance/in its absence (gene YOR344C): 1.3
level of expressed mRNA in the presence of chemical substance/in its absence (gene YOR347C): 1.3
The level of expressed mRNA in the presence of chemical substance/absence: YPL005W (gene YPL005W): 1.1
level of expressed mRNA in the presence of chemical substance/in its absence (gene YPL017C): 0.8
The level of expressed mRNA in the presence of chemical substance / the level in the absence of chemical substance, yeast gene YPL107W (gene YPL107W, DNA chip fluorescence ratio to control without chemical, 2 hours culture with chemical, growth-inhibiting non-lethal concentration): 1.1
The level of expressed mRNA in the presence of chemical substance / the level in the absence of chemical substance, yeast gene YPL138C (gene YPL138C, DNA chip fluorescence ratio to control without chemical, 2 hours culture with chemical, growth-inhibiting non-lethal concentration): 1.1
The level of expressed mRNA in the presence of chemical substance/absence: YPL150W (gene YPL150W): 1.1
The level of expressed mRNA in the presence of chemical substance/absence: YPL151C (gene YPL151C): 1.0
The level of expressed mRNA in the presence of chemical substance/absence: YPL152W (gene YPL152W): 1.9
The level of expressed mRNA in the presence of chemical substance/absence: YPL168W (gene YPL168W): 1.2
The level of expressed mRNA in the presence of chemical substance/absence: YPL180W (gene YPL180W): 0.9
The level of expressed mRNA in the presence of chemical substance/absence: YPL188W (gene YPL188W): 0.9
The level of expressed mRNA in the presence of chemical substance/absence: YPL221W (gene YPL221W): 1.2
The level of expressed mRNA in the presence of chemical substance/absence: YPL225W (gene YPL225W): 1.7
The level of expressed mRNA in the presence of chemical substance/absence: YPL249C (gene YPL249C): 1.2
The level of expressed mRNA in the presence of chemical substance/absence: YPL260W (gene YPL260W): 1.3
level of expressed mRNA in the presence of chemical substance/in its absence (gene YPL265W): 0.4
level of expressed mRNA in the presence of chemical substance/in its absence (gene YPR006C): 2.1
level of expressed mRNA in the presence of chemical substance/in its absence (gene YPR026W): 1.3
The level of expressed mRNA in the presence of chemical substance/absence: YPR049C (gene YPR049C): 1.1
The level of expressed mRNA in the presence of chemical substance/absence: YPR061C (gene YPR061C): 0.9
The level of expressed mRNA in the presence of chemical substance/absence: YPR093C (gene YPR093C): 1.1
The level of expressed mRNA in the presence of chemical substance/absence: YPR146C (gene YPR146C): 1.1
The level of expressed mRNA in the presence of chemical substance/absence: YPR148C (gene YPR148C): 2.0
The level of expressed mRNA in the presence of chemical substance/absence: YPR150W (gene YPR150W): 1.0
The level of expressed mRNA in the presence of chemical substance/absence: YPR158W (gene YPR158W): 0.7
The level of expressed mRNA in the presence of chemical substance/absence: YPR169W (gene YPR169W): 1.1
The level of expressed mRNA in the presence of chemical substance/absence: YPR172W (gene YPR172W): 1.4
The level of expressed mRNA in the presence of chemical substance/absence: YPR174C (gene YPR174C): 0.9
The level of expressed mRNA in the presence of chemical substance/The level of expressed mRNA in the absence of chemical substance (yeast gene YAR010C): 1.0
The level of expressed mRNA in the presence of chemical substance/The level of expressed mRNA in the absence of chemical substance (yeast gene YBL005W-A): 1.0
The level of expressed mRNA in the presence of chemical substance/ (ratio to absence), gene YBL038W (yeast gene YBL038W, mitochondria-located protein genes, 2 h culture with chemical): 1.9
The level of expressed mRNA in the presence of chemical substance/The level of expressed mRNA in the absence of chemical substance (yeast gene YBL041W): 2.0
The level of expressed mRNA in the presence of chemical substance/The level of expressed mRNA in the absence of chemical substance (yeast gene YBL043W): 1.8
The level of expressed mRNA in the presence of chemical substance/The level of expressed mRNA in the absence of chemical substance (yeast gene YBL078C): 2.8
The level of expressed mRNA in the presence of chemical substance/ (ratio to absence of chemical substance) (yeast gene YBL093C): 1.3
The level of expressed mRNA in the presence of chemical substance/ (in its absence), gene YBR036C (yeast gene YBR036C, ratio of DNA chip fluorescence intensity to that without chemical substance): 1.8
The level of expressed mRNA in the presence of chemical substance/ (ratio to absence of chemical substance) (yeast gene YBR044C): 1.3
The level of expressed mRNA in the presence of chemical substance/ (ratio to absence), gene YBR122C (yeast gene YBR122C, mitochondria-located protein genes, 2 h culture with chemical): 1.5
The level of expressed mRNA in the presence of chemical substance/The level of expressed mRNA in the absence of chemical substance (yeast gene YBR214W): 1.2
The level of expressed mRNA in the presence of chemical substance/ (ratio to absence), gene YBR251W (yeast gene YBR251W, mitochondria-located protein genes, 2 h culture with chemical): 1.4
The level of expressed mRNA in the presence of chemical substance/ (in its absence), gene YBR298C (yeast gene YBR298C, ratio of DNA chip fluorescence intensity to that without chemical substance): 0.8
The level of expressed mRNA in the presence of chemical substance/The level of expressed mRNA in the absence of chemical substance (yeast gene YCL020W): 1.3
The level of expressed mRNA in the presence of chemical substance/The level of expressed mRNA in the absence of chemical substance (yeast gene YCL027W): 0.8
The level of expressed mRNA in the presence of chemical substance/The level of expressed mRNA in the absence of chemical substance (yeast gene YCR004C): 3.5
The level of expressed mRNA in the presence of chemical substance/ (ratio to absence), gene YCR046C (yeast gene YCR046C, mitochondria-located protein genes, 2 h culture with chemical): 1.0
The level of expressed mRNA in the presence of chemical substance/The level of expressed mRNA in the absence of chemical substance (yeast gene YCR071C): 1.3
The level of expressed mRNA in the presence of chemical substance/ (ratio to absence), gene YCR083W (yeast gene YCR083W, mitochondria-located protein genes, 2 h culture with chemical): 1.3
The level of expressed mRNA in the presence of chemical substance/ (ratio to absence of chemical substance) (yeast gene YCR083W): 1.3
The level of expressed mRNA in the presence of chemical substance/The level of expressed mRNA in the absence of chemical substance (yeast gene YCR088W): 0.9
The level of expressed mRNA in the presence of chemical substance/The level of expressed mRNA in the absence of chemical substance (yeast gene YDL008W): 1.6
The level of expressed mRNA in the presence of chemical substance/ in its absence, gene YDL067C (yeast gene YDL067C, energy system protein genes, 2 h culture with the chemical, ratio to control without chemical): 1.7
The level of expressed mRNA in the presence of chemical substance/ (ratio to absence), gene YDL067C (yeast gene YDL067C, mitochondria-located protein genes, 2 h culture with chemical): 1.7
The level of expressed mRNA in the presence of chemical substance/ in its absence, gene YDL078C (yeast gene YDL078C, energy system protein genes, 2 h culture with the chemical, ratio to control without chemical): 2.0
